Assay results published in ChEMBL document CHEMBL1201862, “PubChem BioAssay data set” (2004).
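Exposure lasted 48 hours, with cells grown in 96-well plates and compounds tested at five concentrations. Abbreviation: GI50, concentration required for 50% inhibition of growth.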 Active and inactive are the calls of the source. No stated cut-off is given here; in the data, active = GI50 up to about 1.1 µM and inactive = higher.

How the values were obtained:
Assay in all cases: DTP human tumour cell line panel, 48 h
ACHN = tested on: ACHN
CCRF-CEM = tested on: CCRF-CEM
HOP-62 = tested on: HOP-62
HOP-92 = tested on: HOP-92
HT-29 = tested on: HT-29
IGROV-1 = tested on: IGROV-1
M14 = tested on: M14
Malme-3M = tested on: Malme-3M
OVCAR-3 = tested on: OVCAR-3
OVCAR-4 = tested on: OVCAR-4
OVCAR-5 = tested on: OVCAR-5
OVCAR-8 = tested on: OVCAR-8
SF-268 = tested on: SF-268
SW-620 = tested on: SW-620
U-251 = tested on: U-251
NCI-H226 = tested on: NCI-H226
RXF 393 = tested on: RXF 393

Compound	GI50 (ACHN)	GI50 (CCRF-CEM)	GI50 (HOP-62)	GI50 (HOP-92)	GI50 (HT-29)	GI50 (IGROV-1)	GI50 (M14)	GI50 (Malme-3M)	GI50 (OVCAR-3)	GI50 (OVCAR-4)	GI50 (OVCAR-5)	GI50 (OVCAR-8)	GI50 (SF-268)	GI50 (SW-620)	GI50 (U-251)	GI50 (NCI-H226)	GI50 (RXF 393)
COc1ccc(/C=C2/C(=O)N(C(=O)c3ccc(Cl)cc3)N=C2C)cc1OC	> 100 µM (inactive)	> 100 µM (inactive)	> 100 µM (inactive)	> 100 µM (inactive)	> 100 µM (inactive)	> 100 µM (inactive)	> 100 µM (inactive)	> 100 µM (inactive)	> 100 µM (inactive)	> 100 µM (inactive)	> 100 µM (inactive)	> 100 µM (inactive)	> 100 µM (inactive)	> 100 µM (inactive)	> 100 µM (inactive)		
COc1ccccc1/C=N/N=C(\N)NO	8.22 µM (inactive)	16.7 µM (inactive)	6 µM (inactive)	11 µM (inactive)	18.6 µM (inactive)	96.4 µM (inactive)		30 µM (inactive)	45.1 µM (inactive)	38.4 µM (inactive)	4.58 µM (inactive)	> 10 µM (inactive)	20.5 µM (inactive)	21.3 µM (inactive)	48.3 µM (inactive)	28.4 µM (inactive)	28 µM (inactive)
O=C1Nc2ccccc2C1(O)C/C(=N/O)c1ccc2ccccc2c1 (stereo not drawn)	> 100 µM (inactive)	47.2 µM (inactive)	> 100 µM (inactive)		> 100 µM (inactive)		> 100 µM (inactive)	> 100 µM (inactive)	> 100 µM (inactive)	> 100 µM (inactive)	> 100 µM (inactive)	> 100 µM (inactive)	> 100 µM (inactive)	> 100 µM (inactive)	86.5 µM (inactive)	> 100 µM (inactive)	58.9 µM (inactive)
CN(c1ccccc1)C(c1ccccc1)C(O)c1ccccc1 (stereo not drawn)	22.6 µM (inactive)	26.7 µM (inactive)	20.4 µM (inactive)	29.9 µM (inactive)	17.9 µM (inactive)	22.2 µM (inactive)	16.6 µM (inactive)	16.3 µM (inactive)	17.3 µM (inactive)	18.1 µM (inactive)	19.5 µM (inactive)	19.2 µM (inactive)	21.4 µM (inactive)	18.4 µM (inactive)	17.9 µM (inactive)		
CCOC(=O)C(C)(NC(=O)c1ccc(NCc2ccc3nc(NC(=O)c4ccccc4)nc(NC(=O)c4ccccc4)c3c2)cc1)C(=O)OCC	8.17 µM (inactive)		16.6 µM (inactive)	5.62 µM (inactive)	13.3 µM (inactive)	19.9 µM (inactive)	13 µM (inactive)	15 µM (inactive)	5.64 µM (inactive)	2.09 µM (inactive)	> 100 µM (inactive)	4.68 µM (inactive)	8.99 µM (inactive)	11.7 µM (inactive)	7.11 µM (inactive)	10.1 µM (inactive)	2.39 µM (inactive)
C=CCC1(C(=O)OC(C)(C)C)C(OC)=C(C(=O)OC(C)(C)C)C2C1C(C(=O)OC(C)(C)C)=C(OC)C2(CC=C)C(=O)OC(C)(C)C (stereo not drawn)	> 100 µM (inactive)	> 100 µM (inactive)		> 100 µM (inactive)		> 100 µM (inactive)	> 100 µM (inactive)	> 10 µM (inactive)	> 100 µM (inactive)		> 100 µM (inactive)	> 100 µM (inactive)	> 100 µM (inactive)	> 100 µM (inactive)		> 100 µM (inactive)	> 100 µM (inactive)
CC(=O)NNc1nc(C)c(C(=O)NNC(=O)C(=O)Nc2c([N+](=O)[O-])ccc(C)c2C)s1	> 100 µM (inactive)	31 µM (inactive)	> 100 µM (inactive)	> 100 µM (inactive)	> 100 µM (inactive)	> 100 µM (inactive)	> 100 µM (inactive)	> 100 µM (inactive)	> 100 µM (inactive)	52.8 µM (inactive)	> 100 µM (inactive)	> 100 µM (inactive)	90.6 µM (inactive)	76.9 µM (inactive)	> 100 µM (inactive)	> 100 µM (inactive)	
COc1cc(C2C(C(=O)O)=C(C)Oc3cc4c(cc32)OCO4)cc(OC)c1OC (stereo not drawn)	45.2 µM (inactive)	29.9 µM (inactive)		> 100 µM (inactive)	31.6 µM (inactive)	58.2 µM (inactive)	59 µM (inactive)	32.1 µM (inactive)	19.3 µM (inactive)	50.8 µM (inactive)		51.2 µM (inactive)		33.7 µM (inactive)	36.6 µM (inactive)		11.6 µM (inactive)
CC(O)CN1C(=O)NC(Cc2ccccc2)C1=O (stereo not drawn)	> 100 µM (inactive)		29.5 µM (inactive)	> 100 µM (inactive)	> 100 µM (inactive)		> 100 µM (inactive)				> 100 µM (inactive)	> 100 µM (inactive)	> 100 µM (inactive)	> 100 µM (inactive)	> 100 µM (inactive)	> 100 µM (inactive)	> 100 µM (inactive)
Cc1cc2c(c(C(N)=O)c1C)-c1ccccc1C2=O	> 100 µM (inactive)	> 100 µM (inactive)	> 100 µM (inactive)	> 100 µM (inactive)	> 100 µM (inactive)	> 100 µM (inactive)	> 100 µM (inactive)	> 100 µM (inactive)	> 100 µM (inactive)	> 100 µM (inactive)	> 100 µM (inactive)	> 100 µM (inactive)	> 100 µM (inactive)	> 100 µM (inactive)	> 100 µM (inactive)		> 100 µM (inactive)
CC(=O)Nc1cc(N(CCOS(C)(=O)=O)CCOS(C)(=O)=O)ccc1N=O	> 100 µM (inactive)	> 100 µM (inactive)	> 100 µM (inactive)	> 100 µM (inactive)	> 100 µM (inactive)	> 100 µM (inactive)	> 100 µM (inactive)	> 100 µM (inactive)	> 100 µM (inactive)	> 100 µM (inactive)	> 100 µM (inactive)	> 100 µM (inactive)	> 100 µM (inactive)	> 100 µM (inactive)	> 100 µM (inactive)	> 100 µM (inactive)	
OCCCOC(c1ccccc1)(c1ccccc1)c1ccccc1	> 100 µM (inactive)	> 100 µM (inactive)	39.7 µM (inactive)	20.6 µM (inactive)	24.3 µM (inactive)	> 100 µM (inactive)	> 100 µM (inactive)	> 100 µM (inactive)	> 100 µM (inactive)	> 100 µM (inactive)	> 100 µM (inactive)	> 100 µM (inactive)	> 100 µM (inactive)	> 100 µM (inactive)	51.5 µM (inactive)		< 0.01 µM (active)
CCN(CC)CCN1C(=O)CC2[C@@H]3CCc4cc(OC)ccc4C3CC[C@]2(C)C1=O (stereo partly drawn)	96.4 µM (inactive)	18.8 µM (inactive)	25.2 µM (inactive)	24 µM (inactive)	18.4 µM (inactive)	75.2 µM (inactive)	17.7 µM (inactive)	18.5 µM (inactive)	56.8 µM (inactive)	> 100 µM (inactive)	32.5 µM (inactive)		38.5 µM (inactive)		31.6 µM (inactive)		30.5 µM (inactive)
